The format of series [1] is in vivo, human.
Series [2] in a line: Preclinical pharmacokinetic studies, nasal doses. Conditions: repeated or single escalating nasal doses up to 100 μg/rat, 400 μg/rabbit, 600 μg/dog. The series is classed as in vivo.
Series [3] is described as follows: Acute and multidose (28 day) toxicity studies, nasal and intravenous. The series is classed as in vivo, rats, mice, rabbits and dogs.
The test system of series [4] is isolated human nasal chemosensory neurons. Briefly: Electrophysiology: inward currents in isolated human nasal chemosensory neurons. The series is classed as cell-based.
For another series, the system named is estrogen receptors. Briefly: In vitro agonist/antagonist activity on estrogen receptors. The series is classed as biochemical.
The nature of series [5]: Nasal spray 0.5 μg versus vehicle in 14 women of reproductive age, physiologic parameters. The series is classed as in vivo, human. Conditions: compared to vehicle.
Another series has as its target T1, androgen receptors (Homo sapiens, UniProt P10275).
T1 sequence (P10275 1-920): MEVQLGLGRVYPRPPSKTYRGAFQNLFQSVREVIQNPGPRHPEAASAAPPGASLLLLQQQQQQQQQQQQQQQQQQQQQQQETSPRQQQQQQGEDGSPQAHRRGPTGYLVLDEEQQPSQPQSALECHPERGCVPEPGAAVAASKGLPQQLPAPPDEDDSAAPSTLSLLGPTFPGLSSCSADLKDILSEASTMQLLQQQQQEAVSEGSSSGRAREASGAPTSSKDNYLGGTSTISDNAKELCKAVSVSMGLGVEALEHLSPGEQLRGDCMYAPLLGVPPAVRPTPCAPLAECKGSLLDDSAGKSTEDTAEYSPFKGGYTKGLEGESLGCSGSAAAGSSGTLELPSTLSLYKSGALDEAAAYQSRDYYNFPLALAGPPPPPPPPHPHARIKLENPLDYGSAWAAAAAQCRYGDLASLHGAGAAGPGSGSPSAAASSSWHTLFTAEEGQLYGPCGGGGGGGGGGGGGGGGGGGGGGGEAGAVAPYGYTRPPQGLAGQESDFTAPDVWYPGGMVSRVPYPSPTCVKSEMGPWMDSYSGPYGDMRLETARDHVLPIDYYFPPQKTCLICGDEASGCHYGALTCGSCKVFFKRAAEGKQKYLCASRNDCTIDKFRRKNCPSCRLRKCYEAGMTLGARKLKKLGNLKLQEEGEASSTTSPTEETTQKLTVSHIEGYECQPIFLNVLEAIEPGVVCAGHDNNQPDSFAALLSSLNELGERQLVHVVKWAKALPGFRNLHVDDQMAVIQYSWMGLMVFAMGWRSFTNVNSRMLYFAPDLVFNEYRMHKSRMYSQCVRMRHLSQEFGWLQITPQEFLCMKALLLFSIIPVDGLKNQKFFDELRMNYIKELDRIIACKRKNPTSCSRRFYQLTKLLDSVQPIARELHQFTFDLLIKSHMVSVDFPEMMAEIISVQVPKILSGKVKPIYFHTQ
Briefly: In vitro agonist/antagonist activity on androgen receptors. The series is classed as biochemical.

Series [6] deals with nasal chemosensory mucosa. Briefly: Electrogram from the nasal chemosensory mucosa of human volunteers. The series is classed as in vivo. The protocol: The half effective dose of this effect was 0.087 μg.
Series [7] deals with nasal septal chemosensory mucosa. Briefly: Electrophysiology: depolarization of the nasal septal chemosensory mucosa. Also noted: species or system human.
The nature of series [8]: Hot flashes in menopausal women after nasal administration. The series is classed as in vivo, human. The text has this: 16α,17α-Epoxy-10β-hydroxyestr-4-en-3-one decreased parasympathetic system tone resulting in increased sympathetic activity and stimulation of β2 adrenergic receptors in the bronchiole smooth muscle that induced bronchodilation; (b) increased skin conductance amplitude is the result of increased skin secretions, which are produced by preponderance of the sympathetic nervous system tone (or decreased parasympathetic tone); (c) decreased body temperature is explained by increased activity of the posterior (adrenergic) hypothalamus and decreased parasympathetic tone (anterior hypothalamus).

The conditions of series [9]: in vivo.
The mark [10] stands for this setting: after single dose nasal administration.
Where [11] appears, read: women with PMDD, nasal, versus placebo.

Molecules are shown by their SMILES. Where two headings read alike, the source gives them in different places.

Take `C[C@]12CC[C@H]3[C@@H](CCC4=CC(=O)CC[C@@]43O)[C@@H]1C[C@H]1O[C@H]12` [16α,17α-epoxy-10β-hydroxyestr-4-en-3-one]: in series [1] (setting [10]), the persistence of improvements result is “approximately 5 hours” and the “time to appearance of improvements” value is no more than 30 min. Further, in series [1] (in vivo), the serious adverse events result is reported as “No serious adverse events were reported”; the side effects result was “minimal and similar to administration of placebo”. Further, in [1] (setting [11]), the “cortical behavioral symptoms (headache, tension)” value is recorded as “significant improvements”; the “hypothalamic behavioral symptoms (fatigue, anger, craving for foods)” value is given as “significant improvements”; the “limbic system behavioral symptoms (mood swings, depression, lack of interest)” value was “significant improvements”. Further, the systemic exposure entry in series [2] was “very low systemic exposure”. Also, the “deaths, adverse clinical signs, effects on laboratory or pathology parameters” value in [3] (same nasal and intravenous doses, all species) is “no deaths or adverse clinical signs or effects on laboratory or pathology parameters observed”. The tolerability entry in series [3] (single nasal up to 100 μg/rat, 400 μg/rabbit, 600 μg/dog, repeated nasal up to 50 μg/rat/day, 300 μg/dog/day, iv single and repeated up to 2.5 mg/kg, 28 day) is given as “well tolerated in all species tested”. In addition, in series [4] (isolated neurons), the “inward currents in isolated human nasal chemosensory neurons” value was “induced inward currents”. Moreover, the “concentration giving maximal response (amplitude)” value in series [4] (response amplitude increased with concentration) was 10^−7 to 10^−6 M. In the series with estrogen receptors, the “agonist or antagonist activity on estrogen receptors” value is reported as “no agonist or antagonist activity”. In series [5], the cardiac frequency result is given as “not statistically significant increase”, the core body temperature entry is “statistically significant decreases”, the galvanic skin reflex result is reported as “statistically significant decreases” and the respiratory frequency entry is reported as “statistically significant decreases”. The skeletal muscle tone result in series [5] is given as “statistically significant decreases”. Besides, the “agonist or antagonist activity on androgen receptors” value on androgen receptors is “no agonist or antagonist activity”. Also, the “half effective dose of electrogram activation” value in series [6] (human volunteers of both sexes) worked out at 0.087 µg. Moreover, the “activation of the electrogram recorded from the nasal chemosensory mucosa” value in series [6] (microgram quantities, volunteers of both sexes) is recorded as “concentration dependent activation”. Also, the “depolarization of the nasal septal chemosensory mucosa” value in series [7] was “electrotonic depolarization”. For the same compound, the “number, severity and bother of hot flashes” value in [8] was “decreased number, severity and bother of hot flashes”. Also, the systemic exposure entry in [9] is given as “lack of systemic exposure”.
